Test: Inhibition of Mycobacterium tuberculosis H37Rv full-length PTPB expressed in Escherichia coli […] using 6,8-difluoromethylumbelliferyl phosphate as substrate assessed as inhibition of substrate hydrolysis

| Molecule | IC50 [nM] |
| --- | --- |
| CC(=O)c1cc(C)c(O)c(Cc2c(O)cc(-c3ccc(O)c(O)c3)oc2=O)c1O | 160 |
| CC(=O)c1cc(C)c(O)c(CC2=C(C)C(=O)C(O)=C(C)C2=O)c1O | 1370 |
| SODIUM ORTHOVANAD | 82 |
